Reference: ChEMBL document CHEMBL4834434, “Discovery of Novel and Potent N-Methyl-d-aspartate Receptor Positive Allosteric Modulators with Antidepressant-like Activity in Rodent Models” (J Med Chem, 2021)
The source made the active and inactive calls. No cut-off for these calls is given here.

Tests used:
[1] = molecular target: T1, Glutamate NMDA receptor (Mus musculus) (UniProt P35436+Q91ZU9+Q03391+P35438+Q01097+Q01098+A2AIR5); test: Positive allosteric modulation of C57BL/6 mouse NMDA receptor assessed as fold change in compound potentiated NMDA-induced current relative to NMDA current alone at 30 uM measured after 15 to 30 mins by patch-clamp method; format: tissue-based; conditions: Brain, filed as positive allosteric modulator, time 15-30 min
[2] = Brain to blood partition coefficient of the compound; format: physicochemical, tissue-based; conditions: read-out: logBB (converted)
[3] = Cytotoxicity against human HEK293 cells assessed as cell growth inhibition at 60 uM measured after 48 hrs by CCK8 assay relative to control; format: cell-based
[4] = Effect on locomotor activity in ICR mouse assessed as hyperlocomotion at 10 mg/kg, ip measured after 90 mins; format: ADME, organism-based; conditions: in vivo, 1.5 h
[5] = Cytotoxicity against African green monkey Vero cells assessed as cell growth inhibition at 120 uM measured after 48 hrs by CCK8 assay relative to control; format: cell-based; conditions: chlorocebus sabaeus
[6] = Cytotoxicity against mouse L929 cells assessed as cell growth inhibition at 120 uM measured after 48 hrs by CCK8 assay relative to control; format: cell-based
Mus musculus [7] = test: Antidepressant activity in ICR mouse assessed as decrease in immobility time at 30 mg/kg, ip measured after 26 mins by forced swim test; format: functional, organism-based
[8] = molecular target: T1, Glutamate NMDA receptor (Mus musculus); test: Positive allosteric modulation of C57BL/6 mouse NMDA receptor assessed as fold change in compound potentiated NMDA-induced current relative to NMDA current alone in presence of saturating glutamate by patch-clamp method; format: tissue-based; conditions: Brain, filed as positive allosteric modulator
[9] = Cytotoxicity against African green monkey Vero cells assessed as cell growth inhibition at 60 uM measured after 48 hrs by CCK8 assay relative to control; format: cell-based; conditions: chlorocebus sabaeus
hERG (KCNH2) [10] = molecular target: T2, hERG (KCNH2) (Homo sapiens, UniProt Q12809); test: Inhibition of human ERG expressed in CHO cells at 30 uM with holding potential at -80 to -60 mV for 500s followed by raise in potential at +30 mV for 2 sec and subsequent repolarization to -60 mV for 2 sec by whole-cell patch clamp method relative to control; format: cell-based; conditions: CHO cells expressing human ERG
[11] = Cytotoxicity against mouse L929 cells assessed as cell growth inhibition at 60 uM measured after 48 hrs by CCK8 assay relative to control; format: cell-based
Mus musculus [12] = test: Antidepressant activity in ICR mouse aassessed as inhibition of apomorphine-induced climbing behaviour at 10 mg/kg, ip administered prior to APO challenge and measured after 30 mins; format: functional, organism-based
[13] = Effect on locomotor activity in ICR mouse assessed as hypolocomotion at 10 mg/kg, ip measured after 90 mins; format: ADME, organism-based; conditions: in vivo, 1.5 h
[14] = Cytotoxicity against human HEK293 cells assessed as cell growth inhibition at 120 uM measured after 48 hrs by CCK8 assay relative to control; format: cell-based
hERG (KCNH2) [15] = molecular target: T2, hERG (KCNH2); test: Inhibition of human ERG expressed in CHO cells at 100 uM with holding potential at -80 to -60 mV for 500s followed by raise in potential at +30 mV for 2 sec and subsequent repolarization to -60 mV for 2 sec by whole-cell patch clamp method relative to control; format: cell-based; conditions: CHO cells expressing human ERG
Glutamate NMDA receptor = test: Positive allosteric modulation of C57BL/6 mouse NMDA receptor assessed as potentiation of NMDA-induced current in presence of saturating glutamate by patch-clamp method; format: tissue-based, Brain
Mus musculus [16] = test: Antidepressant activity in ICR mouse assessed as decrease in immobility time at 3 to 10 mg/kg, ip measured after 26 mins by forced swim test; format: functional, organism-based; conditions: dose 3-10 mg/kg

T2 sequence (Q12809 whole entry): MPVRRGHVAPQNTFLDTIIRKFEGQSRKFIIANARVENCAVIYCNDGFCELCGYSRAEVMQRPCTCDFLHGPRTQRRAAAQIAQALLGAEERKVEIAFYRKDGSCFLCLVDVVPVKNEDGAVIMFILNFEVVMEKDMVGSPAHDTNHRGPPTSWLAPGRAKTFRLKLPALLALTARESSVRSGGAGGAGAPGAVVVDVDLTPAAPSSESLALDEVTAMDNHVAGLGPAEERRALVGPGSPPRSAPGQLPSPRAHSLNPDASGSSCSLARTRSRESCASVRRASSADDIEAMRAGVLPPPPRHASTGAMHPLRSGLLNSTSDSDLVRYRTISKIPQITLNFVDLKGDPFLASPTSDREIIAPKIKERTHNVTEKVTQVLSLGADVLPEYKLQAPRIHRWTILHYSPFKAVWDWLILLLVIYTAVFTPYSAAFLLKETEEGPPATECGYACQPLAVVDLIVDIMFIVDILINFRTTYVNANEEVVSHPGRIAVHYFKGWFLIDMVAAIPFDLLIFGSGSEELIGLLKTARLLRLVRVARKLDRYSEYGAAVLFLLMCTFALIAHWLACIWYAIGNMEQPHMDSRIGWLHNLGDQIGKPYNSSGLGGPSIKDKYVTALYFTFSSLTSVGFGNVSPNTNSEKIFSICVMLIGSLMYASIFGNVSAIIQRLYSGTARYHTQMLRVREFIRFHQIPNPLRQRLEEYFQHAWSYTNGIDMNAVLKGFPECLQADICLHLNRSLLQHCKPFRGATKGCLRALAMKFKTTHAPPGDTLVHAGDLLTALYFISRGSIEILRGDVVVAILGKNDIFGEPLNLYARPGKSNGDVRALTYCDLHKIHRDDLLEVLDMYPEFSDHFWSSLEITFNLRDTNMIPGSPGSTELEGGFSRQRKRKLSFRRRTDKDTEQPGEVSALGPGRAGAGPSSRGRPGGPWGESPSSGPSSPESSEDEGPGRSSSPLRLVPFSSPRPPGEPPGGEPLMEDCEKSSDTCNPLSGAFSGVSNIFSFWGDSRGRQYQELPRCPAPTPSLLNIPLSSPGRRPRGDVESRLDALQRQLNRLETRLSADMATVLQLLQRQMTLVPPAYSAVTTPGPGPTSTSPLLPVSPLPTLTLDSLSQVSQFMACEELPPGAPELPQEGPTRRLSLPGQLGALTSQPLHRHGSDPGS

Structure (SMILES)	fold change (FC) [1]	Kp [2]	other results
Cc1cc(F)ccc1NC(=O)c1ccc(Cn2nc(C(F)(F)F)cc2C(F)(F)F)o1	2.4	2.51	
CCc1cc(Br)ccc1NC(=O)c1ccc(Cn2nc(C)cc2C)o1	2.6	0.631	
Cc1cc(C)n(Cc2ccc(C(=O)Nc3ccc(Br)cc3Cl)o2)n1	1.7	1	
Cc1cc(C)n(Cc2ccc(C(=O)Nc3ccccc3)o2)n1	0.1	0.398	
Cc1cc(C)n(Cc2ccc(C(=O)Nc3ccc(Cl)cc3C(=O)NCc3ccccc3)o2)n1	2.9	0.166	
Cc1cc(C)n(Cc2ccc(C(=O)Nc3ccc(F)cc3Cl)o2)n1	0.9	0.794	
Cc1cc(C)n(Cc2ccc(C(=O)Nc3ccc(Cl)cc3C(=O)Nc3ccccc3)o2)n1	1.2	0.195	
COc1cc(NC(=O)c2ccc(Cn3nc(C)cc3C)s2)cc(OC)c1	0.4	0.398	
Cc1cc(C)n(Cc2ccc(C(=O)Nc3ccc(Cl)cc3C)s2)n1	-0.2	1.26	
COC(=O)c1cc(F)ccc1NC(=O)c1ccc(Cn2nc(C(F)(F)F)cc2C(F)(F)F)o1	1.9	0.794	
Cc1cc(C)n(Cc2ccc(C(=O)Nc3ccc4cc[nH]c4c3)s2)n1	8.9	0.316	inhibition at 48 h, 60 µM [3]: -7.4%; Activity [4]: Non-Toxic; inhibition at 48 h, 120 µM [5]: -0.4%; inhibition at 48 h, 120 µM [6]: 25.5%; Activity (Mus musculus [7]): inactive; fold change (FC) [8]: 10.5; inhibition at 48 h, 60 µM [9]: -3.2%; inhibition at 2 s, 30 µM (hERG (KCNH2) [10]): 33.6%; inhibition at 48 h, 60 µM [11]: 2.8%; Activity (Mus musculus [12]): inactive; Activity [13]: Non-Toxic; inhibition at 48 h, 120 µM [14]: 2.5%; inhibition at 2 s, 100 µM (hERG (KCNH2) [15]): 46.7%; EC50 (Glutamate NMDA receptor): 9 µM
Cc1cc(C)n(Cc2ccc(C(=O)Nc3ccc(Cl)cc3C)o2)n1	3.2	0.724	
Cc1cc(C)n(Cc2ccc(C(=O)Nc3ccccc3C)o2)n1	1.2	0.49	
Cc1cc(C)n(Cc2ccc(C(=O)Nc3ccccc3CCO)o2)n1	0.4	0.126	
COC(=O)c1cc(Br)ccc1NC(=O)c1ccc(Cn2nc(C)cc2C)o1	2.7	0.251	
O=C(Nc1ccc(Cl)cc1Cl)c1ccc(Cn2nc(C(F)(F)F)cc2C(F)(F)F)o1	0.4	3.98	
O=C(Nc1ccc(Cl)c(Cl)c1)c1ccc(Cn2nc(C(F)(F)F)cc2C(F)(F)F)o1	2.9	3.98	
COc1cc(NC(=O)c2ccc(Cn3nc(C(F)(F)F)cc3C(F)(F)F)o2)cc(OC)c1	2.5	1.26	
CCOc1ccc(NC(=O)c2ccc(Cn3nc(C)cc3C)s2)cc1OCC	2.7	0.251	

Structure (SMILES)	fold change (FC) [1]	Kp [2]	other results
COC(=O)c1cc(F)ccc1NC(=O)c1ccc(Cn2nc(C)cc2C)o1	1.5	0.158	
Cc1cc(C)n(Cc2ccc(C(=O)Nc3ccc(-c4ccccc4)cc3C)s2)n1	2.8	0.501	
Cc1cc(C(F)(F)F)n(Cc2ccc(C(=O)Nc3ccc(Br)cc3C)o2)n1	1.2	1.58	
Cc1cc(C)n(Cc2ccc(C(=O)Nc3ccc(Cl)cc3C(=O)NCCCCO)o2)n1	1.7	0.17	
Cc1cc(C)n(Cc2ccc(C(=O)Nc3ccc(-c4ccccc4)cc3)o2)n1	6.7	0.398	
Cc1cc(C)n(Cc2ccc(C(=O)Nc3ccccc3-c3ccccc3)o2)n1	0.3	0.398	
Cc1cc(C)n(Cc2ccc(C(=O)Nc3ccc(Br)cc3C)s2)n1	1.5	1.26	
Cc1cc(C(F)(F)F)n(Cc2ccc(C(=O)Nc3ccc(Cl)cc3C)o2)n1	7.7	1.58	
Cc1cc(C)n(Cc2ccc(C(=O)Nc3ccc4[nH]c(=O)[nH]c4c3)s2)n1	0.3	0.0251	
Cc1nc2n(c(=O)c1CCN1CCC(c3noc4cc(F)ccc34)CC1)CCCC2			Activity (Mus musculus [12]): Active
Cc1cc(C)n(Cc2ccc(C(=O)Nc3ccc(Cl)cc3C(=O)NCCCO)o2)n1	2.9	0.0331	
Cc1cc(C)n(Cc2ccc(C(=O)Nc3ccc(F)c(C)c3)s2)n1	2.4	0.794	
Cc1cc(C)n(Cc2ccc(C(=O)Nc3ccc(F)cc3C)o2)n1	1.9	0.631	
Cc1cc(Br)ccc1NC(=O)c1ccc(Cn2nc(C(F)(F)F)cc2C(F)(F)F)o1	10.7	2.51	
Cc1cc(C)n(Cc2ccc(C(=O)Nc3ccc4ccccc4c3)o2)n1	3.2	0.398	
CCCCNC(=O)c1cc(Cl)ccc1NC(=O)c1ccc(Cn2nc(C)cc2C)o1	-0.6	0.257	
Cc1cc(C)n(Cc2ccc(C(=O)Nc3ccc4cnccc4c3)s2)n1	-0.2	0.316	
Cc1cc(C)n(Cc2ccc(C(=O)Nc3ccc(Cl)cc3CO)o2)n1	1.1	0.398	
Cc1cc(Br)ccc1NC(=O)c1ccco1	-0.2	1.41	

Structure (SMILES)	fold change (FC) [1]	Kp [2]	other results
Cc1cc(C)n(Cc2ccc(C(=O)Nc3ccc4ccccc4c3)s2)n1	1.8	0.631	
Cc1cc(C)n(Cc2ccc(C(=O)Nc3ccc(F)c(Cl)c3)s2)n1	3.5	1.26	
Cc1cc(C)n(Cc2ccc(C(=O)Nc3ccc(-c4ccccc4)cc3)s2)n1	2.8	0.398	
Cc1cc(C)n(Cc2ccc(C(=O)Nc3ccc4nc[nH]c4c3)s2)n1	0.1	0.158	
CNc1ccccc1NC(=O)c1ccc(Cn2nc(C)cc2C)o1	0.8	0.316	
Cc1cc(C)n(Cc2ccc(C(=O)Nc3ccc4cccnc4c3)s2)n1	1.1	0.316	
Cc1cc(Cl)ccc1NC(=O)c1ccc(Cn2nc(C(F)(F)F)cc2C(F)(F)F)o1	0.7	2.51	
Cc1cc(C)n(Cc2ccc(C(=O)Nc3cc(F)cc(F)c3)s2)n1	5	1	
Cc1cc(C)n(Cc2ccc(C(=O)Nc3ccc(-c4cccnc4)cc3C)s2)n1	1.8	0.251	
Cc1cc(NC(=O)c2ccc(Cn3nc(C(F)(F)F)cc3C(F)(F)F)o2)ccc1F	5.5	2.51	
Cc1cc(Br)ccc1NC(=O)c1ccc(Cl)o1	1.2	2.09	
Cc1cc(C)n(Cc2ccc(C(=O)Nc3ccc(Br)cc3)o2)n1	1.2	0.646	
Cc1cc(C)n(Cc2ccc(C(=O)Nc3ccc(Cl)cc3Cl)o2)n1	4.7	1	
Cc1cc(C)n(Cc2ccc(C(=O)Nc3cc(Cl)cc(Cl)c3)s2)n1	1.2	1.26	
Cc1cc(C)n(Cc2ccc(C(=O)Nc3ccc(-c4cccnc4)cc3)s2)n1	14.3	0.398	inhibition at 48 h, 60 µM [3]: 6.5%; Activity [4]: Non-Toxic; inhibition at 48 h, 120 µM [5]: -7.5%; inhibition at 48 h, 120 µM [6]: 28.6%; Activity (Mus musculus [7]): Active; fold change (FC) [8]: 12.8; inhibition at 48 h, 60 µM [9]: -3.8%; inhibition at 2 s, 30 µM (hERG (KCNH2) [10]): 44.2%; Activity (Mus musculus [16]): inactive; inhibition at 48 h, 60 µM [11]: 27.5%; Activity (Mus musculus [12]): inactive; Activity [13]: Non-Toxic; inhibition at 48 h, 120 µM [14]: 18%; inhibition at 2 s, 100 µM (hERG (KCNH2) [15]): 53.4%; EC50 (Glutamate NMDA receptor): 3.6 µM
Cc1ccc(C(=O)Nc2ccc(Br)cc2C)o1	-0.3	1.32	
Cc1cc(C)n(Cc2ccc(C(=O)Nc3ccc(Cl)c(F)c3)s2)n1	6	1.26	
Cc1cc(C)n(Cc2ccc(C(=O)Nc3cccnc3)o2)n1	2.9	0.251	
COC(=O)c1cc(Cl)ccc1NC(=O)c1ccc(Cn2nc(C)cc2C)o1	0.1	0.158	
